Consider four compounds from patent publication US9908848B2, “Amide derivatives of lactam based N-acylethanolamine acid amidase (NAAA) inhibitors” (The Regents of the University of California, priority 2013, dated 2018).

The target in one assay is T1, r-NAAA (Rattus norvegicus, UniProt Q5KTC7).
T1 construct: Lysosomal NAAA protein preparation was obtained by homogenizing male Sprague-Dawley rat lungs; tissue Charles River; host or cells: male Sprague-Dawley rat lung, soluble lysosomal fraction
T1 sequence (Q5KTC7 34-362): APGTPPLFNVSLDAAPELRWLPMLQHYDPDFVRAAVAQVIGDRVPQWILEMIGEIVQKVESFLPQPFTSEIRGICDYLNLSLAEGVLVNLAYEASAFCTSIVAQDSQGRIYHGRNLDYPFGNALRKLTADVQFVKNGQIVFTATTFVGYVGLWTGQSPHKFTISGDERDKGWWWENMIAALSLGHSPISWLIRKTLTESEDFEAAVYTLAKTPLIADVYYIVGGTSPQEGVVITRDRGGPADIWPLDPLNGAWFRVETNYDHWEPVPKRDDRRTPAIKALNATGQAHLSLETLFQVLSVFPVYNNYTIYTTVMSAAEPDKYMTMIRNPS
The assay can be described thus: UPLC/MS r-NAAA assay. The format is biochemical. How it is done:
Lysosomal NAAA protein preparation was obtained by homogenizing male Sprague-Dawley rat lungs (Charles River) in 20 mM Tris-HCl buffer pH 7.4 containing 0.32M sucrose. Samples were centrifuged at 800×g for 15 min at 4° C. Supernatants were centrifuged at 12,000×g for 30 min at 4° C. Pellets were then resuspended in PBS pH 7.4 and subjected to a freeze/thaw cycle at −80° C. The suspension was finally centrifuged at 105,000 g for 1 h at 4° C. The supernatant was used in enzymatic assays.
NAAA preparations were pre-incubated with various concentrations of test compounds or vehicle control in 100 mM NaH2PO4/Citrate buffer, 1% Triton-X, 3 mM DTT (pH 4.5) for 30 min at 37° C. Samples were incubated with heptadecenoylethanolamide (50 μM, Avanti Polar Lipids) at 37° C. for 30 min. The reaction was terminated by addition of cold methanol containing heptadecanoic acid (NuCheck Prep) as internal standard. Samples were analyzed by UPLC/MS (Acquity, Waters). Heptadecenoic and heptadecanoic acids were eluted on an Acquity UPLC BEH C18 column (50 mm length, 2.1 mm i.d., 1.7 μm pore size, Waters) isocratically at 0.5 mL/min for 1.5 min with a solvent mixture of 95% methanol and 5% H2O, both containing 0.25% Acetic Acid and 5.0 mM ammonium acetate. The column temperature was 40° C. Electrospray ionization was in the negative mode, capillary voltage was 0.5 kV, cone voltage was […], desolvation temperature was 500° C. N2 was used as drying gas at a flow rate of 1000 L/hour and a temperature of 500° C. The [M−H]^− ion was monitored in the selected-ion monitoring mode (m/z values: heptadecenoic acid 267.37, heptadecanoic acid 269.37). Calibration curves were generated using commercial heptadecenoic acid (NuCheck Prep) Inhibition of NAAA activity was calculated as reduction of heptadecenoic acid in the samples compared to vehicle controls. IC50 values were calculated by non-linear regression analysis of log [concentration]/inhibition curves using GraphPad Prism 5 (GraphPad Software Inc., CA—USA) applying a standard slope curve fitting.

Another assay concerns the target T2, human NAAA (Homo sapiens, UniProt Q02083).
T2 construct: made in house; host or cells: HEK293 cells, stably transfected; soluble fraction after freeze/thaw
T2 sequence (Q02083 29-359): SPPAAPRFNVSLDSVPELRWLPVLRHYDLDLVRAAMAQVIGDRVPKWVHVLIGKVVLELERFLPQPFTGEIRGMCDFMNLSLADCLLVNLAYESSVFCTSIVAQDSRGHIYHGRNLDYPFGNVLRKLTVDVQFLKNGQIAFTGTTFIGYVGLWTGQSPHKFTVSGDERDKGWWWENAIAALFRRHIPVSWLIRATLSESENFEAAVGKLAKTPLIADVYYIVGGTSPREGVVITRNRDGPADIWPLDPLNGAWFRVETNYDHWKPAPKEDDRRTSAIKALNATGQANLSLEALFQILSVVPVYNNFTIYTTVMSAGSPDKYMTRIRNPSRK
As to the kind of experiment: Fluorogenic h-NAAA assay. The format is biochemical. The settings on record: for IC50: recombinant HEK-hNAAA preparation. The protocol: Hek293 cells stably transfected with the human NAAA coding sequence cloned from a human spleen cDNA library were used as enzyme source. Recombinant HEK-hNAAA pellets were resuspended in homogenizing buffer, and sonicated. Samples were centrifuged at 800×g for 15 min at 4° C. and the supernatants were ultracentrifuged at 12,000×g for 30 min at 4° C. The pellets were resuspended in PBS pH 7.4 on ice and subjected to a freeze/thaw cycle at −80° C. (two freeze/thaw cycles at −80° C. for Examples 34-37). The suspension was finally centrifuged at 105,000×g for 1 h at 4° C. Protein concentration was measured and samples stored at −80° C. until use.
The assay was run in Optiplate 96-wells black plates, in a total reaction volume of 200 μL. NAAA protein preparation (4.0 μg for Examples except 34-37, which were 20.0 μg) was pre-incubated for 10 min with various concentrations of test compounds or vehicle control (5% DMSO) in 100 mM citrate/phosphate buffer (pH 4.5) containing 3.0 mM DTT, 0.1% Triton X-100, 0.05% BSA, 150 mM NaCl. N-(4-methyl-2-oxo-chromen-7-yl)-hexadecanamide was used as a substrate (5.0 μM) and the reaction carried over for 30 min at 37° C. The samples were then read in a Perkin Elmer Envision plate reader using an excitation wavelength of 360 nm and emission 460 nm. IC50 values were calculated by non-linear regression analysis of log [concentration]/inhibition curves using GraphPad Prism 5 (GraphPad Software Inc., CA—USA) applying a standard slope curve fitting.

Assay [1] deals with carrageenan-induced paw edema and heat hyperalgesia. The assay can be described thus: Carrageenan-induced inflammation (paw edema, heat hyperalgesia). The format is in vivo. Conditions: mice, oral administration (p.o.), 3-30 mg/kg, dose- and time-dependent. (In general: Carrageenan injected into the paw causes an acute inflammation.)
Assay [2] has as its target T3, Rat AC (r-AC), Acid Ceramidase (Rattus norvegicus, UniProt Q6P7S1).
T3 construct: V5 (C); His (C); made in house; host or cells: HEK293 cells transfected with pEF6-rAC-V5/His, selected with G418; soluble fraction after freeze/thaw
T3 sequence (Q6P7S1 21-394): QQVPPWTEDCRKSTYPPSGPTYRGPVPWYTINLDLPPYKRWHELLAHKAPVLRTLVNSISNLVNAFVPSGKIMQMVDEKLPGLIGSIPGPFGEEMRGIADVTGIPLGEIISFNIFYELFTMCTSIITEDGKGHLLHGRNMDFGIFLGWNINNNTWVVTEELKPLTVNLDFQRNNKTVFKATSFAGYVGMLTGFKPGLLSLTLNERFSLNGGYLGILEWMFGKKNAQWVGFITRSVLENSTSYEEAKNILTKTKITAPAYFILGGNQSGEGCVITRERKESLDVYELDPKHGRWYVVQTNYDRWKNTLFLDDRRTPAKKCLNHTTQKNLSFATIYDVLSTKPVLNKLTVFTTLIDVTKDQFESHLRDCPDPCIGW
The assay can be described thus: Rat AC (r-AC) assay, UPLC/MS. The assay is classed as biochemical. The settings on record: read-out: r-AC UPLC/MS assay % inhib. The protocol:
The selectivity of selected compounds versus Acid Ceramidase (AC) was determined.
Rat AC (r-AC) was cloned from a brain cDNA library using primers based on the sequence obtained from the National Center for Biotechnology Information (NCBI) database: 5′rAC (5′-GACCATGCTGGGCCGTAGT-3′) (SEQ ID NO:1) and 3′rAC (5′-CCAGCCTATACAAGGGTCT-3′) (SEQ ID NO:2). The PCR (High Fidelity PCR Master, Roche) product was subcloned into a pEF6-V5/His vector (Invitrogen) to construct a mammalian expression vector encoding V5/His-tagged rat AC. HEK293 cells were transfected with pEF6-rAC-V5/His using Super-Fect reagent (Qiagen) and screened with G418 (0.3 mg/mL). Cells were suspended in 20 mM Tris HCl (pH 7.5) containing 0.32M sucrose, sonicated and centrifuged at 800×g for 15 min at 4° C. The supernatants were centrifuged again at 12,000×g for 30 min at 4° C. The pellets were suspended in phosphate-buffered saline (PBS) and subjected to 2 freeze-thaw cycles at −80° C. The suspensions were centrifuged at 105,000×g for 1 hour at 4° C. The supernatants containing recombinant AC were kept at −80° C. until use. Protein concentration was measured using the bicinchoninic acid (BCA) assay (Pierce). Recombinant rat AC (50 μg) was preincubated with inhibitors (final DMSO concentration 1%) in assay buffer (100 mM sodium phosphate, 0.1% Nonidet P-40, 150 mM NaCl, 3 mM DTT, 100 mM sodium citrate, pH 4.5) for 30 min at 37° C. Reactions were started by the addition of 100 μM N-lauroyl ceramide (Nu-Chek Prep, Elysian, Minn.) and carried on for 30 min at 37° C. Reactions were stopped by addition of a mixture of chloroform/methanol (2:1, vol/vol) containing 1 nmol of heptadecanoic acid (HDA; NuChek Prep). The organic phases were collected, dried under N2, and analyzed by LC-MS in the negative-ion mode using […] (HDA) as internal standard (m/z=199 for lauric acid, m/z=269 for HDA). HDA was eluted on an XDB Eclipse C18 column isocratically at 2.2 mL/min for 1 min with a solvent mixture of 95% methanol and 5% water, both containing 0.25% acetic acid and 5 mM ammonium acetate. The column temperature was 50° C. Electrospray ionization (ESI) was in the negative mode, capillary voltage as 4 kV, and fragmentor voltage was 100 V. N2 was used as drying gas at a flow rate of 13 L/min and a temperature of 350° C. Nebulizer pressure was set at 60 psi. We monitored […] in the selected-ion monitoring (SIM) mode using HDA as internal standard. Calibration curves were generated using commercial lauric acid (Nu-Chek Prep; m/z=199).

What is called IC50 is the concentration that inhibits the measured activity by half. On to `CCCCC/C=C/CC(=O)N[C@H]1CNC1=O` [Example 5, (E)-N-[(3S)-2-Oxoazetidin-3-yl]-non-3-enamide], for which the IC50 came out at 2.3 µM against r-NAAA (rat lung lysosomal NAAA preparation) and 1.34 µM at human NAAA. In addition, the heat hyperalgesia result in assay [1] is recorded as “markedly attenuated”. Further, the paw edema result in assay [1] is on record as “markedly attenuated”.

For the compound `CCCCCCCCCC(=O)N[C@H]1CNC1=O` [Example 23, N-[(3S)-2-Oxoazetidin-3-yl]-decanamide], on human NAAA, the IC50 came out at 0.086 µM. Further, in assay [2], the inhibition at 1 µM amounted to 70%.

With `CCCCCCCCC(=O)N(C)[C@H]1CNC1=O` [Example 27, N-Methyl-N-[(3S)-2-Oxoazetidin-3-yl]-nonanamide], the inhibition at 3 µM on r-NAAA (@ 3 μM, read-out: r-NAAA UPLC/MS assay % inhib.) is 40%. The inhibition at 2.5 µM at human NAAA (@ 2.5 μM, read-out: h-NAAA Fluorogenic assay % inhib.) turned out to be 20%.

Regarding `O=C(CCCCCCC1CCCCC1)N[C@H]1CNC1=O` [Example 30, 7-Cyclohexyl-N-[(3S)-2-oxoazetidin-3-yl]-heptanamide], the IC50 at human NAAA turned out to be 0.21 µM. In assay [2], the inhibition at 1 µM is 45%.
